Experimental data: ChEMBL document CHEMBL4732171 (J Med Chem, 2021)
The source made the active and inactive calls. No cut-off for these calls is given here.

What was measured:
Carbonic anhydrase 3 = Carbonic anhydrase 3 (Homo sapiens, UniProt P07451)
[1] = target: Carbonic anhydrase 2 (Homo sapiens) (UniProt P00918); test: Binding affinity to human full length CAH2 expressed in Escherichia coli BL21 (DE3) assessed as binding concentration causing thermal stabilization by Sypro-Orange dye based DSF assay
[2] = target: Carbonic anhydrase 9 (Homo sapiens) (UniProt Q16790); settings: T47D, dose 50.0 nM
[3] = target: Carbonic anhydrase 9 (Homo sapiens) (UniProt Q16790); settings: UFH-001, dose 50.0 nM

Sequence of Carbonic anhydrase 3 (P07451 whole entry): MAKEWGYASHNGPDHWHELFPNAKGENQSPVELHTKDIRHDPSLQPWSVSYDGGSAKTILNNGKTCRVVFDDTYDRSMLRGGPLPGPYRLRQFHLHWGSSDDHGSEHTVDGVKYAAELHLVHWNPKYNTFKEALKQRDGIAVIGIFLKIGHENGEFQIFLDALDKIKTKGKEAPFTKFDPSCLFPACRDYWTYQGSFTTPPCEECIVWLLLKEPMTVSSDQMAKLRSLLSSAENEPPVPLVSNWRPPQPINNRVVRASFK

Row | inhibition [2] | inhibition [3] | SMILES | Ki (Carbonic anhydrase 3) [µM] | Activity [1] [mM]
1 |  |  | NS(=O)(=O)c1ccc(N2CCN(c3ccc(F)cc3F)C2=O)cc1 | > 10 | 0.1
2 | Active | Active | CCOc1ccc2nc(S(N)(=O)=O)sc2c1 |  | 
